# Test results as given in patent US10422788B2, “Profiling peptides and methods for sensitivity profiling” (Tolero Pharmaceuticals, Inc., priority 2016, dated 2019).
# Key:
# Assay type in all cases: cell-based
# [1] = test system: OCI-AML3 cells; assay: Titration of concentrations of profiling peptides, Mcl-1 dependency percentage (JC-1); settings: profiling peptide at 10 μM; FIG. 2
# Description: Briefly, frozen OCI-AML3 cell stocks were rapidly thawed, and cell viability was determined by Trypan Blue exclusion. Cells were washed in PBS and resuspended in DTEB (or MEB) buffer (135 mM Trehalose [or 150 mM Mannitol], 10 mM HEPES, 50 mM KCl, 20 μM EGTA, 20 μM EDTA, 0.1% BSA, 5 mM succinate). The profiling peptides and NOXA (SEQ ID NO:16) were reconstituted in water to make working solutions allowing for final concentrations of: SEQ ID NO:1 (100 μM), SEQ ID NO:1 (30 μM), SEQ ID NO:1 (10 μM), and NOXA (100 μM). […] Profiling peptides, controls, or NOXA (for comparison purposes) were first added to a microplate. […] Fluorescence signal of each well was assessed using an Envision multilabel plate reader at Ex475/Em530 and Ex530/Em595.
# Statistical Analysis: For each peptide, the Mcl-1 dependency percentage was calculated using the following formula that determines the dependency:
# [formula] Where PC is the fluorescence intensity of the positive control, NC is the fluorescence intensity of the negative control, and Pep is the fluorescence intensity of the peptide at the noted concentration.
# [2] = test system: MOLM-13 cells; assay: Whole cell assay, JC-1 mitochondrial potential, cells lacking digitonin (FIG. 1B); settings: 100 μM peptide, no digitonin
# Description: Briefly, frozen MOLM-13 and OCI-AML3 cell stocks were rapidly thawed, and cell viability was determined by Trypan Blue exclusion. Cells were washed in PBS and resuspended in DTEB (or MEB) buffer (135 mM Trehalose [or 150 mM Mannitol], 10 mM HEPES, 50 mM KCl, 20 μMI EGTA, 20 μM EDTA, 0.1% BSA, and 5 mM succinate). The profiling peptides and NOXA ([…]; SEQ ID NO:16) were reconstituted in water to make working solutions allowing for final concentrations of: SEQ ID NO:1 (100 μM), SEQ ID NO:14 (100 μM), SEQ ID NO:15 (100 μM), and NOXA (100 μM). […] Profiling peptides, controls, or NOXA (for comparison purposes) were first added to a microplate. Cells (4×10^5) resuspended in DTEB or MEB buffers were then added to a staining solution ([…], 40 μM JC-1, 1 M 2-mercaptoethanol, DTEB or MEB buffer), before being added to the wells of the microplate in the above (for non-digitonin-treated samples, digitonin was not added to the staining solution above). The mixture was then incubated for up to 2 hours at 30° C., in order for cell permeabilization (if needed), delivery of peptides or compounds, and mitochondrial depolarization to occur. Fluorescence signal of each well was assessed using an Envision multilabel plate reader at Ex475/Em530 and Ex530/Em595. […]
# [3] = test system: MOLM-13 cells; assay: Addition of ryanodine to the Example 5 assay; settings: 20 nM Ryanodine; Tat-mediated calcium release from the ER; FIG. 4
substance,measurement,setting,value
RPEIWMTQGLRRLGDEINAYYAR (Exemplary Mcl-1 Binding Domain sequence) [SEQ ID NO:1],Mcl-1 dependency percentage compared to NOXA at 100 μM,[1],comparable value
RPEIWMTQGLRRLGDEINAYYARGGGYGRKKRRQRRR (profiling peptide sequence) [SEQ ID NO:15],activity compared to the positive control (FCCP),[2],exceeded the activity of the positive control
ryanodine,nonspecific dye uptake,[3],prevented nonspecific dye uptake
